In test [1] the test system is phosphorylation of ERK1/2 in A375 cells containing mutant B-Raf (V600E). The test can be described thus: Phospho-ERK FACE assay in A375 (B-Raf mutated) melanoma cell line. The class given is cell-based. The settings on record: Homo sapiens, A-375, A375 cells, 2 hours incubation, read-out: IC50, A375 melanoma phospho-ERK assay. The method in brief:
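A375 cells (B-Raf V600E), serum-starved overnight in 0.1% FBS, exposed to compounds for 2 hours at 37° C (1% DMSO). Fixed cells probed with anti-phospho-ERK1/2 (Thr202/Tyr204, Thr185/Tyr187) antibody overnight at 4° C, total ERK on a separate plate. HRP-secondary chemiluminescence read-out.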

The target in test [2] is T1, GST-tagged human recombinant active B-Raf (Δ1-415) (Homo sapiens, UniProt P15056).
T1 construct: GST; purchased Upstate/Millipore
T1 sequence (P15056 416-766, stated change not applied): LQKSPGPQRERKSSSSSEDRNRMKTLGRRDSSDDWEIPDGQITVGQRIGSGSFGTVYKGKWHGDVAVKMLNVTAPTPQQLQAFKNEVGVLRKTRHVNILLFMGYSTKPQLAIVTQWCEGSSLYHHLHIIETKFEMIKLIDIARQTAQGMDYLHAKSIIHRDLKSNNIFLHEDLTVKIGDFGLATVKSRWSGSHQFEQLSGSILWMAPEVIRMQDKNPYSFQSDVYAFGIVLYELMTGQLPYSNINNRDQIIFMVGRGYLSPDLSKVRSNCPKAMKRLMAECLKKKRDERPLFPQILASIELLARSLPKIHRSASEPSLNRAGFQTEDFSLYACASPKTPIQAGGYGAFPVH
The test can be described thus: B-Raf kinase activity, IMAP coupled assay (B-Raf/MEK1/ERK2, fluorescence polarization). Conditions: bounds also given as pIC50 (>6, >7, >8); 60 min pre-incubation with compound, ATP 50 μM; read-out: IC50, B-Raf IMAP assay. The class given is biochemical. An outline of the steps: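 Coupled cascade: GST-B-Raf (Δ1-415; 0.2 U/ml) pre-incubated with compound (1% DMSO) 60 min at room temperature, then unactive MEK1 (64 ng/ml), unactive ERK2 (600 ng/ml), 50 nM fluorescein-Erktide and 50 μM ATP added for 60 min at 30 °C, pH 7.2 Tris buffer. Phosphopeptide captured on IMAP beads (60 min); fluorescence polarization read.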
Background: In fluorescence polarisation assays a small probe gives low polarisation when free and higher when bound to something large.

Setting [3] is: between 1 μM and 100 nM (6<pIC50<7).

A word on the IC50: it is the concentration needed to halve the response being measured.

Read-outs that look alike come from different tables or passages of the source.

Turning to `Cc1ccc(NC(=O)c2cccc(C(C)(C)C#N)c2)cc1NC(=O)c1cc2ncc(NCCN3CCOCC3)nc2s1` [Example 63, N-(5-(3-(2-cyanopropan-2-yl)benzamido)-2-methylphenyl)-3-(2-morpholinoethylamino)thieno[2,3-b]pyrazine-6-carboxamide], the figures for the concentration for half-maximal inhibition (IC50) in test [1] (setting [3]) and in test [2] were 100 to 1000 nM and less than 10 nM, respectively.
In the case of `COCCNc1cnc2cc(C(=O)Nc3cc(NC(=O)c4cccc(C(C)(C)C#N)c4)ccc3C)sc2n1` [Example 65, N-(5-(3-(2-cyanopropan-2-yl)benzamido)-2-methylphenyl)-3-(2-methoxyethylamino)thieno[2,3-b]pyrazine-6-carboxamide], the IC50 in test [1] (setting [3]) was 100 to 1000 nM; in test [2], less than 10 nM.
Regarding `Cc1ccc(NC(=O)c2cccc(C(C)(C)C#N)c2)cc1NC(=O)c1cc2ncc(NCCO)nc2s1` [Example 66, N-(5-(3-(2-cyanopropan-2-yl)benzamido)-2-methylphenyl)-3-(2-hydroxyethylamino)thieno[2,3-b]pyrazine-6-carboxamide], the IC50 in test [1] (class between 10 μM and 1 μM (5<pIC50<6)) was 1000 to 10000 nM; in test [2], less than 10 nM.
For `CCNc1cnc2cc(C(=O)Nc3cc(NC(=O)c4cccc(C(C)(C)C#N)c4)ccc3C)sc2n1` [Example 67, N-(5-(3-(2-cyanopropan-2-yl)benzamido)-2-methylphenyl)-3-(ethylamino)thieno[2,3-b]pyrazine-6-carboxamide], the IC50 in test [1] (setting [3]) is 100 to 1000 nM; in test [2], less than 100 nM.
As for `Cc1ccc(NC(=O)c2cccc(C(C)(C)C#N)c2)cc1NC(=O)c1cc2ncc(-c3cccnc3)nc2s1` [Example 68, N-(5-(3-(2-cyanopropan-2-yl)benzamido)-2-methylphenyl)-3-(pyridin-3-yl)thieno[2,3-b]pyrazine-6-carboxamide], the IC50 in test [1] (setting [3]) is 100 to 1000 nM; in test [2] it was less than 100 nM.
Take `Cc1ccc(NC(=O)c2cccc(C(C)(C)C#N)c2)cc1NC(=O)c1cc2ncc(-c3ccncc3)nc2s1` [Example 69, N-(5-(3-(2-cyanopropan-2-yl)benzamido)-2-methylphenyl)-3-(pyridin-4-yl)thieno[2,3-b]pyrazine-6-carboxamide]: the IC50 in test [1] (class given as below 100 nM (pIC50>7)) is less than 100 nM; in test [2] it was less than 10 nM.
Take `Cc1cnc2cc(C(=O)Nc3cc(NC(=O)c4cccc(C(C)(C)C#N)c4)ccc3C)sc2n1` [Example 70, N-(5-(3-(2-cyanopropan-2-yl)benzamido)-2-methylphenyl)-3-methylthieno[2,3-b]pyrazine-6-carboxamide]: the IC50 in test [1] (setting [3]) is 100 to 1000 nM; in test [2], less than 100 nM.
For the compound `Cc1ccc(NC(=O)c2cccc(C(C)(C)C#N)c2)cc1C(=O)Nc1cc2nccnc2s1` [Example 73, 5-(3-(2-cyanopropan-2-yl)benzamido)-2-methyl-N-(thieno[2,3-b]pyrazin-6-yl)benzamide], the IC50 was 100 to 1000 nM in test [1] (setting [3]) and less than 100 nM in test [2].
